Read-outs that look alike come from different tables or passages of the source.
Tests used:
carotid body = assay: Carotid sinus nerve recordings (carotid body sensory activity); design: species or system mouse; settings: 30 mM, PO2=625 mmHg; for Carotid sinus nerve activity, Olfr78-/- mutants: Olfr78-/- mutant nerves; for Carotid sinus nerve activity, Olfr78+/+: wild-type Olfr78+/+ preparations
Olfr78 [1] = biological target: T1, Olfr78 (Mus musculus, UniProt Q8VBV9); assay: Luciferase dual reporter assay of Olfr78 expressed in HEK293T cells; format: cell-based
T1 construct: host or cells: HEK293T
T1 sequence (Q8VBV9 1-320): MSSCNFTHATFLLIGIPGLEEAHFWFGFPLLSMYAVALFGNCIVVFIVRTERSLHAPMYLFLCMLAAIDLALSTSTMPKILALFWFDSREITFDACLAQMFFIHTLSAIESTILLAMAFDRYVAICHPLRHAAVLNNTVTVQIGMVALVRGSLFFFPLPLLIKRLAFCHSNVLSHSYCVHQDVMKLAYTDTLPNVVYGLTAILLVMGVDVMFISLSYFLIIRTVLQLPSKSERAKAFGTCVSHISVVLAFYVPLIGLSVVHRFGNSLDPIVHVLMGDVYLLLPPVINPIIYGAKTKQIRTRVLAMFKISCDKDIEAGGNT
Description: pCl-Rho-Olfr78 plasmid construction and expression. The pCl-Rho-Olfr78 plasmid was made by PCR amplifying the Olfr78 coding region from a pCMV6-Olfr78 plasmid (OriGene) using forward primer 5′-[…]-3′ and reverse primer 5′-[…]-3′, adding EcoR1 and Not1 restriction sites. The Olfr78 PCR fragment was then digested with EcoR1 and Not1 and cloned into a pCl-Rho backbone cut from a pCl-Rho-Olfr62 plasmid (gift of Hiroaki Matsunami, Duke University). […] Cytoplasmic GFP (co-transfection marker) was expressed from a TBC1 D25::eGFP plasmid (gift of Suzanne Pfeffer, Stanford University).
Luciferase assay. HEK293T cells were grown and seeded into 96 well plates. On the next day, cells were transfected with RTP1S, Gα15-olf (gifts of Hiroaki Matsunami, Duke University), pCMV6-Ric8b (Origene), pCRE-Luc (Agilent), and pSV40-RL (Promega) plasmids and either pCl-Rho-Olfr78 or pCl (Promega). The Rho tag on Olfr78 and RTP1S were used to enhance localization of Olfr78 to the plasma membrane. Gα15-olf and Ric8b were included as downstream effectors that couple to ORs to increase cAMP production upon OR activation. Two transcriptional luciferase reporters, one constitutive (Renilla, pSV40-RL) and one inducible by cAMP (firefly, pCRE-Luc) were transfected to report increased cAMP levels upon OR activation.
Five hours after transfection, media was decanted and replaced with 50 μL/well MEM without phenol red (Life Technologies). After thirty minutes, 25 μL of chemicals were added to each well to achieve the indicated final concentrations, and cells were incubated for 2 hours. Sodium salts of chloride, L-lactate, propionate, and acetate (Sigma) were used.
Reagents to detect firefly and Renilla luciferase activity (Dual-Glo Luciferase Assay System, Promega) were added at 20 μl/well. Luminescence was measured using an Infinite M1000 (Tecan) microplate reader and data acquired by Magellan Data Analysis Software (Tecan). Two readings were collected for each plate and luciferase reagent, and firefly to Renilla ratios were averaged. Data was from experiments conducted over three days. For dose response curves in FIG. 4a and FIGS. 11d-f, ratios were normalized to the highest and lowest average values for a given condition across all plates on each day.
Data analysis and statistics. Data analysis and statistical tests were performed using Microsoft Excel and GraphPad software. GraphPad Prism 6 was used to fit dose-response curves using a variable slope model and to calculate EC50 values. All data are biological replicates, and quantitative data with error bars are presented as mean±standard error of the mean (s.e.m.) with the exception of FIG. 11c, which is presented as percent±standard error of percentage. […] No statistical method was used to predetermine sample size.

OR51E2 [2] = biological target: T2, OR51E2 (Homo sapiens, UniProt Q9H255); settings: cited from earlier work
T2 construct: host or cells: HEK293T
T2 sequence (Q9H255 1-320): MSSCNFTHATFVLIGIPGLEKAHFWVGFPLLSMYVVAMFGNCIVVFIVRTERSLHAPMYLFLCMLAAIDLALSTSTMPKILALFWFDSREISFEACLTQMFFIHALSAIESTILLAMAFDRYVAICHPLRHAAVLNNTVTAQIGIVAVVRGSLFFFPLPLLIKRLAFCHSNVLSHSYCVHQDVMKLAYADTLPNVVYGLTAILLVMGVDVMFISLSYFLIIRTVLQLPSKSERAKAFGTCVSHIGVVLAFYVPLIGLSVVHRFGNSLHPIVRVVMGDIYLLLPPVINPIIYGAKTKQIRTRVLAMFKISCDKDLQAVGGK

Olfr78 [3] = biological target: T1, Olfr78; settings: cited from earlier work
OR51E1 [4] = biological target: T3, OR51E1 (Homo sapiens, UniProt Q8TCB6); settings: another study and a more recent study; cited from earlier work
T3 sequence (Q8TCB6 1-318): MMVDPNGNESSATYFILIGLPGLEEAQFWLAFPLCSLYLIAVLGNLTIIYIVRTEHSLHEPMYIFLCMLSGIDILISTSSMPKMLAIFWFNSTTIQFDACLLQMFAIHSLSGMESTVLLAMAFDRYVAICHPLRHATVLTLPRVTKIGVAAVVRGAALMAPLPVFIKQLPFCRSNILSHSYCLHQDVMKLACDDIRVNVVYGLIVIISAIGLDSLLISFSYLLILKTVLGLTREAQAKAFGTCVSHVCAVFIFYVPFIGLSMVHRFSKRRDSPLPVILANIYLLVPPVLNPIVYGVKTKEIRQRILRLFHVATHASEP

OR51E1 [5] = biological target: T3, OR51E1; settings: screen of 93 named compounds; cited from earlier work
Olfr558 = Olfr558 (Mus musculus, UniProt Q8VGZ7); settings: screen of 93 named compounds; cited from earlier work
[6] = system: carotid body glomus cells; assay: Calcium imaging of GCaMP3-expressing carotid body glomus cells; format: cell-based, mouse; settings: lactate 30 mM, cyanide 2 mM; whole carotid bodies and slice preparations; hyperoxia
OR51E2 [7] = biological target: T2, OR51E2; settings: screen of 93 named compounds; cited from earlier work
[8] = heterologous expression in HEK293T cells, same range of concentrations
[9] = study looking at Olfr78 and OR51E2

Sequence of Olfr558 (Q8VGZ7 entry or part of it): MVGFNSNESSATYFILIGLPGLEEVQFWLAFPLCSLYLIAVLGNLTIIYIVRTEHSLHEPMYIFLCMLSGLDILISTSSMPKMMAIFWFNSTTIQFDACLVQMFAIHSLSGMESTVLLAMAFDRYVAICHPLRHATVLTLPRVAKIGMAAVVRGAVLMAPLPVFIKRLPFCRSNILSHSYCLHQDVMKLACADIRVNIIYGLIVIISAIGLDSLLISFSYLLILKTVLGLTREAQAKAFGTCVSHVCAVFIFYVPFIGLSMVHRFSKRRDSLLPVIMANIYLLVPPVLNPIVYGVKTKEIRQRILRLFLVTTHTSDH

| Compound | Carotid sinus nerve activity, Olfr78-/- mutants (carotid body) | Carotid sinus nerve activity, Olfr78+/+ (carotid body) | Activation of Olfr78 (in words) (Olfr78 [1]; [8]) | Agonist activity at OR51E1 (OR51E1 [4]) | other results |
| --- | --- | --- | --- | --- | --- |
| CC(=O)O [acetate] | little effect | stimulate carotid sinus nerve activity | stimulated Olfr78 | – | Agonist activity at OR51E2 (OR51E2 [2]; [9]): agonists; Agonist activity at Olfr78 (Olfr78 [3]; [9]): agonists |
| CC(C)CC(=O)O [isovaleric acid] | – | – | – | activated | – |
| CCCCCCCCC(=O)O [nonanoic acid] | – | – | – | activated | Agonist activity at OR51E1 in chemical screen (OR51E1 [5]): activated; Agonist activity at Olfr558 in chemical screen (Olfr558): activated |
| CCCCOC(=O)C(C)OC(=O)CCC (stereo not drawn) [butyl butylryllactate] | – | – | – | – | Agonist activity at OR51E1 in chemical screen (OR51E1 [5]): activated |
| CC(O)C(=O)O (stereo not drawn) [lactate, 2-hydroxypropanoic acid] | little response | increased carotid sinus nerve activity | activated Olfr78 in a dose-dependent manner | – | EC50 (Olfr78 [1]; heterologous expression in HEK293T cells, sodium salts, 2 hours stimulation, read-out: EC50 for activation of Olfr78): 4 mM; Calcium response of glomus cells [6]: induced calcium transients |
| Cl [Chloride ion, chloride] | – | – | – | – | Activation of Olfr78 (in words) (Olfr78 [1]): no effect |
| O=CO [formate] | – | – | – | – | Agonist activity at OR51E2 (OR51E2 [2]): not; Agonist activity at Olfr78 (Olfr78 [3]): not |
| CC(C)CCC(=O)O [4-methyl-valeric acid] | – | – | – | agonists | – |
| CCC(=O)O [propionate, propionic acid] | little effect | stimulate carotid sinus nerve activity | stimulated Olfr78 | activated | Agonist activity at OR51E2 in chemical screen (OR51E2 [7]): specifically activated; Agonist activity at OR51E2 (OR51E2 [2]; [9]): agonists; Agonist activity at Olfr78 (Olfr78 [3]; [9]): agonists |
| CCC(C)CC(=O)O (stereo not drawn) [3-methyl-valeric acid] | – | – | – | agonists | – |

— patent US20170100353A1, “COMPOSITIONS AND METHODS THAT TARGET OLFACTORY RECEPTORS FOR REGULATION OF BREATHING” (The Board of Trustees of the Leland Stanford Junio, priority 2015, published 2017)
